Earlier results, collected in patent publication US20170296666A1, “Stable Pharmaceutical Composition Of Amorphous Ticagrelor” (Amneal Pharmaceuticals Company GmbH, priority 2016, published 2017).

Conditions: class IV = low solubility and low permeability

- Biopharmaceutics Classification System (BCS) class: class IV
Structure (SMILES): CCCSc1nc(N[C@@H]2C[C@H]2c2ccc(F)c(F)c2)c2nnn([C@@H]3C[C@H](OCCO)[C@@H](O)[C@H]3O)c2n1 [Ticagrelor, (1S,2S,3R,5S)-3-[7-{[(1/R,2S)-2-(3,4-difluorophenyl)cyclopropyl]amino}-5 (propylthio)-3H-[1,2,3]-triazolo[4,5-d]pyrimidin-3-yl]-5-(2-hydroxyethoxy) cyclopentane-1,2-diol]
